Results taken from patent US9879036B2, “Mitochondrial aldehyde dehydrogenase-2 binding compounds and methods of use thereof” (Aviv Therapeutics, Inc., priority 2014, dated 2018).

What follows are compounds tested against T1, ALDH2 (Homo sapiens, UniProt P05091) (assay: ALDH2 activity with 20 μM of the compound (Table 3)). Conditions: 20 μM compound.
T1 construct: His-tag (N); made in house; host or cells: E. coli BL21
T1 sequence (P05091 18-517): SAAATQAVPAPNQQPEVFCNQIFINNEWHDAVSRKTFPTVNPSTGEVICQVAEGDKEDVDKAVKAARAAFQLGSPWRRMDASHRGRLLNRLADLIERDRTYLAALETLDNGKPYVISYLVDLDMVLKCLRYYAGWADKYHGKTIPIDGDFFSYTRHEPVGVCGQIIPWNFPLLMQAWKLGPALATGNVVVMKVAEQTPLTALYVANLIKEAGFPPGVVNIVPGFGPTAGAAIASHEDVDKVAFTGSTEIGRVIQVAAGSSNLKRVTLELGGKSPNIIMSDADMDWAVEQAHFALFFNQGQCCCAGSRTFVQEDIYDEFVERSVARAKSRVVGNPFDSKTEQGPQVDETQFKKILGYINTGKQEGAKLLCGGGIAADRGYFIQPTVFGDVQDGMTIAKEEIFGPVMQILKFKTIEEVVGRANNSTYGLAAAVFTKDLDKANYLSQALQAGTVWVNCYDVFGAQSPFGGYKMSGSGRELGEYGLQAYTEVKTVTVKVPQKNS
Assay type: biochemical
Protocol: (§1) ALDH2 catalyzes the oxidative reaction of substrate acetaldehyde to acetic acid using NAD^+ as a cofactor. Enzymatic activity, or catalytic rate, of aldehyde dehydrogenase (ALDH2) are measured spectrophotometrically at UV wavelength λ340 nm by the accumulation of reduced product NADH derived from NAD^+. Absorbance at λ340 nm is quantitatively proportional to the amount of NADH being produced over time (6.22 O.D. unit=1 mmol of NADH, measured in a 1-cm width standard cuvette). This method is well-established in the literature [e.g. Rex et al., Alcohol Clin. Exp. Res. 9, 147 (1985)].
as §1, with “can be” for “are”
ALDH2 catalyzes the oxidative reaction of substrate acetaldehyde to acetic acid using NAD^+ as a cofactor. Enzymatic activity, or catalytic rate, of aldehyde dehydrogenase (ALDH2) can be measured spectrophotometrically at UV wavelength λ340 nm by the accumulation of reduced product NADH derived from NAD^+. Because compounds of formula (I) are considered to be agonists or “activators” of ALDH2 the enzymatic activity measured will exceed 100% of the baseline enzymatic activity of the enzyme in its normal activation state. As the concentration of the compounds of formula (I) decreases from 20 micromolar to 0.16 micromolar in the presence of ALDH, a decrease in the activation of enzymatic activity is observed for the wild-type ALDH2*1/*1 and the heterozygous form ALDH2*1/*2.

| Structure (SMILES) | activity at 20 µM |
| --- | --- |
| CC(C)(C)c1ccc(CNC(=O)c2cc(-c3ccccc3CO)cnc2OCC2CC2)cc1 [AC50] | 100 to 150% |
| COc1c(F)cc(CNC(=O)c2cc(-c3ncccc3CO)ccc2OCC2CC2)cc1Cl [AC147] | 150 to 250% |
| O=C(NCc1cc(Cl)c2c(c1)OCO2)c1cc(-c2ncccc2CO)ccc1OCC1CC1 [AC45] | 100 to 150% |
| O=C(NCc1ccc(C(F)(F)F)cc1)c1cc(-c2ccccc2CO)cnc1OCC1CC1 [AC49] | 100 to 150% |
| [2H]C([2H])([2H])Oc1ccc(CNC(=O)c2cc(-c3ncccc3CO)ccc2OC([2H])([2H])C2CC2)cc1F [AC159] | > 250% |
| COc1ccc(CNC(=O)c2cc(-c3ncccc3CO)ccc2OC(C)C)cc1F [AC102] | > 250% |
| CCCOc1ccc(-c2ncccc2CO)cc1C(=O)NCc1ccc(OC)c(F)c1 [AC100] | 150 to 250% |
| COc1ccc(CNC(=O)c2cc(-c3cnccc3CO)ccc2OC2CCC2)cc1F [AC105] | 150 to 250% |
| COc1ccc(CNC(=O)c2cc(-c3ncccc3CO)ccc2OC2CCCCCC2)cc1F [AC164] | > 250% |
| COc1ccc(CNC(=O)c2cc(-c3cnccc3CO)ccc2OC(C)C)cc1F [AC101] | > 250% |
| COc1ccc(CNC(=O)c2cc(-c3cnccc3CO)ccc2OCC(C)C)cc1F [AC111] | > 250% |
| COc1ccc(CNC(=O)c2cc(-c3cnccc3CO)ccc2O)cc1F [AC93] | 100 to 150% |
| [2H]C([2H])([2H])Oc1ccc(CNC(=O)c2cc(-c3ncccc3CO)ccc2OCC2CC2)cc1F [AC153] | > 250% |
| CCOc1ccc(-c2ncccc2CO)cc1C(=O)NCc1ccc(OC)c(F)c1 [AC98] | 150 to 250% |
| O=C(NCc1ccc(C(F)(F)F)cc1F)c1cc(-c2ccccc2CO)cnc1OCC1CC1 [AC51] | 100 to 150% |
| COc1ccc(CNC(=O)c2cc(-c3ncccc3CO)ccc2OCC2CC2)cc1OC [AC44] | 150 to 250% |
| COc1ccc(CNC(=O)c2cc(-c3cnccc3CO)ccc2OC)cc1F [AC95] | 150 to 250% |
| COc1ccc(CNC(=O)c2cc(-c3cnccc3CO)ccc2OC2CC2)cc1F [AC103] | 150 to 250% |
| O=C(NCc1cc2c(cc1Cl)OCO2)c1cc(-c2ncccc2CO)ccc1OCC1CC1 [AC46] | 100 to 150% |
| CCCOc1ccc(-c2cnccc2CO)cc1C(=O)NCc1ccc(OC)c(F)c1 [AC99] | 150 to 250% |
| COc1c(F)cc(CNC(=O)c2cc(-c3ncccc3CO)ccc2OCC2CC2)cc1F [AC145] | 150 to 250% |
| COc1ccc(CNC(=O)c2cc(-c3ncccc3CO)ccc2OC2CCCCC2)cc1F [AC110] | > 250% |

| Structure (SMILES) | activity at 20 µM |
| --- | --- |
| COc1ccc(CNC(=O)c2cc(-c3ncccc3CO)ccc2OC2CCCCCCC2)cc1F [AC165] | 150 to 250% |
| COc1ccc(CNC(=O)c2cc(-c3ncccc3CO)ccc2NCC2CC2)cc1F [AC42] | 150 to 250% |
| O=C(NCc1ccc(Cl)cc1)c1cc(-c2ccccc2CO)cnc1OCC1CC1 [AC52] | 100 to 150% |
| [2H]C(O)c1cccnc1-c1ccc(OCC2CC2)c(C(=O)NCc2ccc(OC([2H])([2H])[2H])c(F)c2)c1 (centres unmarked) [AC157] | > 250% |
| O=C(NCc1ccc2c(c1)OCO2)c1cc(-c2ncccc2CO)ccc1OCC1CC1 [AC43] | 150 to 250% |
| O=C(NCc1ccccc1)c1cc(-c2ccccc2CO)cnc1OCC1CC1 [AC55] | 100 to 150% |
| COc1ccc(CNC(=O)c2cc(-c3nc[nH]c3CO)ccc2OCC2CC2)cc1F [AC38] | 150 to 250% |
| COc1ccc(CNC(=O)c2cc(-c3ncccc3CO)ccc2OCC2CCCC2)cc1F [AC166] | > 250% |
| COc1ccc(CNC(=O)c2cc(-c3ncccc3CO)ccc2OC2CCC2)cc1F [AC106] | 150 to 250% |
| COc1cc(F)c(CNC(=O)c2cc(-c3ncccc3CO)ccc2OCC2CC2)cc1F [AC146] | > 250% |
| COc1ccc(CNC(=O)c2cc(-c3cnccc3CO)ccc2OC2CCCC2)cc1F [AC107] | > 250% |
| COc1ccc(CNC(=O)c2cc(-c3ncccc3CO)ccc2OC2CC2)cc1F [AC104] | 150 to 250% |
| COc1ccc(CNC(=O)c2cc(-c3cnccc3CO)ccc2OC2CCCCC2)cc1F [AC109] | > 250% |
| COc1ccc(CNC(=O)c2cc(-c3ncccc3CO)ccc2O)cc1F [AC94] | 100 to 150% |
| COc1ccc(CNC(=O)c2cc(-c3ncccc3CO)ccc2OC)cc1F [AC96] | 150 to 250% |
| COc1ccc(CNC(=O)c2cc(-c3ncccc3CO)ccc2OCC2CCCCC2)cc1F [AC163] | 150 to 250% |
| [2H]C(O)c1cccnc1-c1ccc(OCC2CC2)c(C(=O)NCc2ccc(OC)c(F)c2)c1 (centres unmarked) [AC152] | > 250% |
| COc1cc(OC)c(CNC(=O)c2cc(-c3ncccc3CO)ccc2OCC2CC2)cc1F [AC148] | 150 to 250% |
| Cc1ccc(CNC(=O)c2cc(-c3ccccc3CO)cnc2OCC2CC2)cc1 [AC48] | 100 to 150% |
| COc1ccc(CNC(=O)c2cc(-c3ncccc3CO)ccc2OC2CCCC2)cc1F [AC108] | > 250% |
| COc1ccc(CNC(=O)c2cc(-c3ncccc3CO)ccc2OCC2CC2)c(C)c1F [AC150] | 150 to 250% |
| CCOc1ccc(-c2cnccc2CO)cc1C(=O)NCc1ccc(OC)c(F)c1 [AC97] | 150 to 250% |

The next lines start with the values.

| activity at 20 µM | Structure (SMILES) |
| --- | --- |
| 150 to 250% | O=C(NCc1ccc(Cl)c(Cl)c1)c1cc(-c2ccccc2CO)cnc1OCC1CC1 [AC54] |
| 100 to 150% | COc1ccc(CNC(=O)c2cc(-c3nocc3CO)cnc2OCC2CC2)cc1F [AC41] |
| 100 to 150% | COc1ccc(CNC(=O)c2cc(-c3ccccc3C(=O)O)cnc2OCC2CC2)cc1F [AC75] |
| 100 to 150% | COc1ccc(CNC(=O)c2cc(-c3n[nH]cc3CO)cnc2OCC2CC2)cc1F [AC40] |
| 100 to 150% | COc1ccc(CNC(=O)c2cc(-c3ccccc3CCC(C)=O)cnc2OCC2CC2)cc1F [AC81] |
| 100 to 150% | COc1ccc(CNC(=O)c2cc(-c3ccccc3CN(C)C)cnc2OCC2CC2)cc1F [AC76] |
| 100 to 150% | COc1ccc(CNC(=O)c2cc(-c3ccccc3C(N)=O)cnc2OCC2CC2)cc1F [AC91] |
| 100 to 150% | COc1ccc(CNC(=O)c2cc(-c3ccccc3C(C)O)cnc2OCC2CC2)cc1F (centres unmarked) [AC89] |
| 100 to 150% | COc1ccc(CNC(=O)c2cc(-c3ccccc3C(=O)O)ccc2OCC2CC2)cc1F [AC85] |
| 100 to 150% | COc1ccc(CNC(=O)c2cc(-c3ccccc3/C=C/C(C)=O)cnc2OCC2CC2)cc1F [AC77] |
| 150 to 250% | CNCc1ccccc1-c1ccc(OCC2CC2)c(C(=O)NCc2ccc(OC)c(F)c2)c1 [AC83] |
| 100 to 150% | COc1ccc(CNC(=O)c2cc(-c3ccccc3C(=O)N(C)C)cnc2OCC2CC2)cc1F [AC79] |
| > 250% | COc1ccc(CNC(=O)c2cc(-c3c[nH]nc3CO)ccc2OCC2CC2)cc1F [AC30] |
| 100 to 150% | COc1ccc(CNC(=O)c2cc(-c3ccccc3O)ccc2OCC2CC2)cc1F [AC82] |
| 100 to 150% | COc1ccc(CNC(=O)c2cc(-c3ccccc3OC)cnc2OCC2CC2)cc1F [AC74] |
| 100 to 150% | CNCc1ccccc1-c1cnc(OCC2CC2)c(C(=O)NCc2ccc(OC)c(F)c2)c1 [AC70] |
| 150 to 250% | CCNCc1ccccc1-c1ccc(OCC2CC2)c(C(=O)NCc2ccc(OC)c(F)c2)c1 [AC84] |
| 150 to 250% | COc1ccc(CNC(=O)c2cc(-c3cn(C)nc3CO)ccc2OCC2CC2)cc1F [AC39] |
| > 250% | COc1ccc(CNC(=O)c2cc(-c3cnn(C)c3CO)ccc2OCC2CC2)cc1F [AC33] |
| 100 to 150% | CCNC(=O)c1ccccc1-c1cnc(OCC2CC2)c(C(=O)NCc2ccc(OC)c(F)c2)c1 [AC80] |
| 100 to 150% | COc1ccc(CNC(=O)c2cc(-c3ccccc3/C=N/O)cnc2OCC2CC2)cc1F [AC90] |
| 100 to 150% | COc1ccc(CNC(=O)c2cc(-c3ccccc3CCO)cnc2OCC2CC2)cc1F [AC92] |
| 100 to 150% | COc1ccc(CNC(=O)c2cc(-c3ccccc3OC)ccc2OCC2CC2)cc1F [AC78] |
| 100 to 150% | O=C(NCc1ccc(F)cc1)c1cc(-c2ccccc2CO)cnc1OCC1CC1 [AC53] |
